Measured values published in PubChem BioAssay (NCI).
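Method: 48-hour compound exposure of cells in 96-well plates, five concentrations, linear interpolation of endpoints. TGI is the concentration that stops growth completely.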

What was measured:
Test in all cases: NCI-60 cell line screen, 48 h
MDA-N = test system: MDA-N
HCT-15 colon = test system: HCT-15 colon
SK-OV-3 ovarian = test system: SK-OV-3 ovarian
OVCAR-8 ovarian = test system: OVCAR-8 ovarian
UACC-257 melanoma = test system: UACC-257 melanoma
A498 renal = test system: A498 renal
RXF 393 renal = test system: RXF 393 renal
SK-MEL-5 melanoma = test system: SK-MEL-5 melanoma
MCF7 breast = test system: MCF7 breast
T-47D breast = test system: T-47D breast
OVCAR-4 ovarian = test system: OVCAR-4 ovarian
SNB-75 CNS = test system: SNB-75 CNS
HOP-92 NSCLC = test system: HOP-92 NSCLC
SK-MEL-28 melanoma = test system: SK-MEL-28 melanoma
MALME-3M melanoma = test system: MALME-3M melanoma
SW-620 colon = test system: SW-620 colon
SN12C renal = test system: SN12C renal
TK-10 renal = test system: TK-10 renal
SR leukemia = test system: SR leukemia
MOLT-4 leukemia = test system: MOLT-4 leukemia
NCI-H522 lung = test system: NCI-H522 lung
NCI-H226 lung = test system: NCI-H226 lung
COLO 205 colon = test system: COLO 205 colon
PC-3 prostate = test system: PC-3 prostate
MDA-MB-435 = test system: MDA-MB-435
EKVX NSCLC = test system: EKVX NSCLC
MDA-MB-231 breast = test system: MDA-MB-231 breast
OVCAR-5 ovarian = test system: OVCAR-5 ovarian
SK-MEL-2 melanoma = test system: SK-MEL-2 melanoma
M14 melanoma = test system: M14 melanoma
NCI/ADR-RES ovarian = test system: NCI/ADR-RES ovarian
A549 NSCLC = test system: A549 NSCLC
NCI-H460 lung = test system: NCI-H460 lung
SF-539 CNS = test system: SF-539 CNS
HL-60(TB) leukemia = test system: HL-60(TB) leukemia
786-0 renal = test system: 786-0 renal
U251 CNS = test system: U251 CNS
NCI-H23 lung = test system: NCI-H23 lung
LOX IMVI melanoma = test system: LOX IMVI melanoma
DU-145 prostate = test system: DU-145 prostate
CAKI-1 renal = test system: CAKI-1 renal
UACC-62 melanoma = test system: UACC-62 melanoma
HCT-116 colon = test system: HCT-116 colon
SNB-19 CNS = test system: SNB-19 CNS
IGROV1 ovarian = test system: IGROV1 ovarian
BT-549 breast = test system: BT-549 breast
UO-31 renal = test system: UO-31 renal
HT29 colon = test system: HT29 colon
K-562 leukemia = test system: K-562 leukemia
SF-268 CNS = test system: SF-268 CNS
KM12 colon = test system: KM12 colon
OVCAR-3 ovarian = test system: OVCAR-3 ovarian
HCC-2998 colon = test system: HCC-2998 colon
RPMI-8226 leukemia = test system: RPMI-8226 leukemia
HS 578T breast = test system: HS 578T breast
SF-295 CNS = test system: SF-295 CNS
CCRF-CEM leukemia = test system: CCRF-CEM leukemia
ACHN renal = test system: ACHN renal
HOP-62 NSCLC = test system: HOP-62 NSCLC

`Cc1ccc(NC(=O)c2cc(S(=O)(=O)Nc3n[nH]c(=O)n3-c3ccccc3)c(S)cc2Cl)cc1` gave a TGI (MDA-N) of over 100 µM, a TGI (HCT-15 colon) of over 100 µM and a TGI (SK-OV-3 ovarian) of over 100 µM. For the same compound, the TGI (OVCAR-8 ovarian) was over 100 µM, the TGI (UACC-257 melanoma) was over 100 µM and the TGI (A498 renal) was over 100 µM. The TGI (RXF 393 renal) was over 100 µM, the TGI (SK-MEL-5 melanoma) was over 100 µM and the TGI (MCF7 breast) was over 100 µM. The TGI (T-47D breast) was over 100 µM, the TGI (OVCAR-4 ovarian) was over 100 µM and the TGI (SNB-75 CNS) was over 100 µM. For the same compound, the TGI (HOP-92 NSCLC) was over 100 µM, the TGI (SK-MEL-28 melanoma) was over 100 µM and the TGI (MALME-3M melanoma) was over 100 µM. The TGI (SW-620 colon) was over 100 µM, the TGI (SN12C renal) was over 100 µM and the TGI (TK-10 renal) was over 100 µM. For the same compound, the TGI (SR leukemia) was over 100 µM, the TGI (MOLT-4 leukemia) was over 100 µM and the TGI (NCI-H522 lung) was over 100 µM. For the same compound, the TGI (NCI-H226 lung) was over 100 µM, the TGI (COLO 205 colon) was over 100 µM and the TGI (PC-3 prostate) was over 100 µM. For the same compound, the TGI (MDA-MB-435) was over 100 µM, the TGI (EKVX NSCLC) was over 100 µM and the TGI (MDA-MB-231 breast) was over 100 µM. The TGI (OVCAR-5 ovarian) was over 100 µM, the TGI (SK-MEL-2 melanoma) was over 100 µM and the TGI (M14 melanoma) was over 100 µM. For the same compound, the TGI (NCI/ADR-RES ovarian) was over 100 µM, the TGI (A549 NSCLC) was over 100 µM and the TGI (NCI-H460 lung) was over 100 µM. It also gave a TGI (SF-539 CNS) of over 100 µM, a TGI (HL-60(TB) leukemia) of over 100 µM and a TGI (786-0 renal) of over 100 µM. It also gave a TGI (U251 CNS) of over 100 µM, a TGI (NCI-H23 lung) of over 100 µM and a TGI (LOX IMVI melanoma) of over 100 µM. The TGI (DU-145 prostate) was over 100 µM, the TGI (CAKI-1 renal) was over 100 µM and the TGI (UACC-62 melanoma) was over 100 µM. It also gave a TGI (HCT-116 colon) of over 100 µM, a TGI (SNB-19 CNS) of over 100 µM and a TGI (IGROV1 ovarian) of over 100 µM. The TGI (BT-549 breast) was over 100 µM, the TGI (UO-31 renal) was over 100 µM and the TGI (HT29 colon) was over 100 µM. It also gave a TGI (K-562 leukemia) of over 100 µM, a TGI (SF-268 CNS) of over 100 µM and a TGI (KM12 colon) of over 100 µM. For the same compound, the TGI (OVCAR-3 ovarian) was over 100 µM, the TGI (HCC-2998 colon) was over 100 µM and the TGI (RPMI-8226 leukemia) was over 100 µM. It also gave a TGI (HS 578T breast) of over 100 µM.
With `Cc1n[nH]c(=O)n1/N=C/c1ccc([N+](=O)[O-])cc1` the TGI (MDA-N) was over 100 µM, the TGI (HCT-15 colon) was over 100 µM and the TGI (SF-295 CNS) was over 100 µM. The TGI (OVCAR-8 ovarian) was over 100 µM, the TGI (UACC-257 melanoma) was over 100 µM and the TGI (A498 renal) was over 100 µM. The TGI (RXF 393 renal) was over 100 µM, the TGI (SK-MEL-5 melanoma) was over 100 µM and the TGI (MCF7 breast) was over 100 µM. It also gave a TGI (T-47D breast) of over 100 µM, a TGI (OVCAR-4 ovarian) of over 100 µM and a TGI (SNB-75 CNS) of over 100 µM. For the same compound, the TGI (HOP-92 NSCLC) was over 100 µM, the TGI (SK-MEL-28 melanoma) was over 100 µM and the TGI (MALME-3M melanoma) was over 100 µM. For the same compound, the TGI (SW-620 colon) was over 100 µM, the TGI (SN12C renal) was over 100 µM and the TGI (TK-10 renal) was over 100 µM. The TGI (SR leukemia) was over 100 µM, the TGI (MOLT-4 leukemia) was over 100 µM and the TGI (NCI-H522 lung) was over 100 µM. The TGI (NCI-H226 lung) was over 100 µM, the TGI (COLO 205 colon) was over 100 µM and the TGI (CCRF-CEM leukemia) was over 100 µM. It also gave a TGI (ACHN renal) of over 100 µM, a TGI (PC-3 prostate) of over 100 µM and a TGI (MDA-MB-435) of over 100 µM. For the same compound, the TGI (EKVX NSCLC) was over 100 µM, the TGI (MDA-MB-231 breast) was over 100 µM and the TGI (OVCAR-5 ovarian) was over 100 µM. The TGI (SK-MEL-2 melanoma) was over 100 µM, the TGI (NCI/ADR-RES ovarian) was over 100 µM and the TGI (A549 NSCLC) was over 100 µM. It also gave a TGI (HOP-62 NSCLC) of over 100 µM, a TGI (NCI-H460 lung) of over 100 µM and a TGI (SF-539 CNS) of over 100 µM. The TGI (HL-60(TB) leukemia) was over 100 µM, the TGI (786-0 renal) was over 100 µM and the TGI (U251 CNS) was over 100 µM. It also gave a TGI (NCI-H23 lung) of over 100 µM, a TGI (LOX IMVI melanoma) of over 100 µM and a TGI (DU-145 prostate) of over 100 µM. For the same compound, the TGI (CAKI-1 renal) was over 100 µM, the TGI (UACC-62 melanoma) was over 100 µM and the TGI (HCT-116 colon) was over 100 µM. For the same compound, the TGI (BT-549 breast) was over 100 µM, the TGI (UO-31 renal) was over 100 µM and the TGI (HT29 colon) was over 100 µM. The TGI (K-562 leukemia) was over 100 µM, the TGI (SF-268 CNS) was over 100 µM and the TGI (KM12 colon) was over 100 µM. The TGI (OVCAR-3 ovarian) was over 100 µM, the TGI (HCC-2998 colon) was over 100 µM and the TGI (RPMI-8226 leukemia) was over 100 µM. For the same compound, the TGI (HS 578T breast) was over 100 µM.
Work on `CC(C)c1cc2c(c(O)c1O)[C@@]1(C)CCCC(C)(C)C1=C(O)C2` yielded a TGI (MDA-N) of 6.77 µM, a TGI (HCT-15 colon) of 6.77 µM and a TGI (SF-295 CNS) of 4.38 µM. For the same compound, the TGI (OVCAR-8 ovarian) was 6.99 µM, the TGI (UACC-257 melanoma) was 3.37 µM and the TGI (A498 renal) was 3.19 µM. For the same compound, the TGI (RXF 393 renal) was 2.96 µM, the TGI (SK-MEL-5 melanoma) was 2.32 µM and the TGI (MCF7 breast) was 2.85 µM. The TGI (T-47D breast) was 20 µM, the TGI (OVCAR-4 ovarian) was 4.55 µM and the TGI (SNB-75 CNS) was 2.56 µM. For the same compound, the TGI (HOP-92 NSCLC) was 2.32 µM, the TGI (SK-MEL-28 melanoma) was 8.69 µM and the TGI (MALME-3M melanoma) was 3.36 µM. It also gave a TGI (SW-620 colon) of 5.4 µM, a TGI (SN12C renal) of over 50 µM and a TGI (TK-10 renal) of 24.2 µM. The TGI (SR leukemia) was 3.21 µM, the TGI (MOLT-4 leukemia) was 2.99 µM and the TGI (NCI-H522 lung) was 3.06 µM. The TGI (NCI-H226 lung) was over 50 µM, the TGI (COLO 205 colon) was 8.06 µM and the TGI (CCRF-CEM leukemia) was 2.12 µM. The TGI (ACHN renal) was 5.39 µM, the TGI (PC-3 prostate) was 3.51 µM and the TGI (MDA-MB-435) was 2.77 µM. For the same compound, the TGI (EKVX NSCLC) was 3.56 µM, the TGI (MDA-MB-231 breast) was over 50 µM and the TGI (OVCAR-5 ovarian) was 9.03 µM. It also gave a TGI (SK-MEL-2 melanoma) of 2.65 µM, a TGI (M14 melanoma) of 13.4 µM and a TGI (NCI/ADR-RES ovarian) of 2 µM. The TGI (A549 NSCLC) was 5.73 µM, the TGI (HOP-62 NSCLC) was 13.4 µM and the TGI (NCI-H460 lung) was 5.89 µM. It also gave a TGI (SF-539 CNS) of 1.89 µM, a TGI (HL-60(TB) leukemia) of 3.27 µM and a TGI (786-0 renal) of 11.8 µM. The TGI (U251 CNS) was 4.54 µM, the TGI (NCI-H23 lung) was 6.8 µM and the TGI (LOX IMVI melanoma) was 3.14 µM. The TGI (DU-145 prostate) was over 50 µM, the TGI (CAKI-1 renal) was 2.84 µM and the TGI (UACC-62 melanoma) was over 50 µM. For the same compound, the TGI (HCT-116 colon) was over 50 µM, the TGI (SNB-19 CNS) was 9.32 µM and the TGI (IGROV1 ovarian) was 2.79 µM. For the same compound, the TGI (BT-549 breast) was 4.22 µM, the TGI (UO-31 renal) was 3.95 µM and the TGI (HT29 colon) was 16.1 µM. It also gave a TGI (K-562 leukemia) of 4.13 µM, a TGI (SF-268 CNS) of 5.84 µM and a TGI (KM12 colon) of 5.78 µM. The TGI (OVCAR-3 ovarian) was 5.26 µM, the TGI (HCC-2998 colon) was 2.76 µM and the TGI (RPMI-8226 leukemia) was 2.15 µM. It also gave a TGI (HS 578T breast) of 13.4 µM.
